Activity calls are given as the source filed them. The rule behind the calls is not given here.
Tests used:
ECa-109 cell line = assay: Antiproliferative activity against human EC109 cells assessed as inhibition of cell growth by SRB assay; type: functional, cell-based
[1] = Antiproliferative activity against human L02 cells assessed as inhibition of cell growth incubated for 72 hrs by SRB assay; type: toxicity, cell-based
MGC-803 [2] = assay: Antiproliferative activity against human MGC-803 cells assessed as inhibition of cell growth incubated for 72 hrs by SRB assay; type: functional, cell-based; conditions: MGC-803, 72 h
HGC-27 [3] = assay: Antiproliferative activity against human HGC-27 cells assessed as inhibition of cell growth incubated for 72 hrs by SRB assay; type: functional, cell-based; conditions: HGC-27, 72 h
HGC-27 [4] = assay: Antiproliferative activity against human HGC-27 cells assessed as inhibition of cell growth at 0.25 to 8 uM by SRB assay; type: functional, cell-based; conditions: dose 0.25-8 µM, time 24-72 hrs, TDE = time-dependent effect
HGC-27 [5] = assay: Induction of apoptosis in human HGC-27 cells incubated for 48 hrs by Annexin-V FITC staining based flow cytometry analysis; type: functional, cell-based; conditions: dose 1-4 µM, DDE = dose-dependent effect
MGC-803 [6] = assay: Induction of mitochondrial membrane depolarization in human MGC-803 cells incubated for 48 hrs by flow cytometry analysis; type: functional, cell-based; conditions: dose 1-4 µM, DDE = dose-dependent effect
HGC-27 [7] = assay: Induction of mitochondrial membrane depolarization in human HGC-27 cells incubated for 48 hrs by flow cytometry analysis; type: functional, cell-based; conditions: dose 1-4 µM, DDE = dose-dependent effect
MGC-803 [8] = assay: Induction of apoptosis in human MGC-803 cells assessed as decrease in caspase 3 protein expression level at 1 to 4 uM incubated for 48 hrs by Western blot analysis; type: functional, cell-based; conditions: dose 1-4 µM
MGC-803 [9] = assay: Induction of apoptosis in human MGC-803 cells assessed as decrease in caspase 7 protein expression level at 1 to 4 uM incubated for 48 hrs by Western blot analysis; type: functional, cell-based; conditions: dose 1-4 µM
HGC-27 [10] = assay: Induction of apoptosis in human HGC-27 cells assessed as decrease in caspase 7 protein expression level at 1 to 4 uM incubated for 48 hrs by Western blot analysis; type: functional, cell-based; conditions: dose 1-4 µM
MGC-803 [11] = assay: Induction of apoptosis in human MGC-803 cells assessed as decrease in caspase 9 protein expression level at 1 to 4 uM incubated for 48 hrs by Western blot analysis; type: functional, cell-based; conditions: dose 1-4 µM
HGC-27 [12] = assay: Induction of apoptosis in human HGC-27 cells assessed as increase in cleaved caspase 3 protein expression level at 1 to 4 uM incubated for 48 hrs by Western blot analysis; type: functional, cell-based; conditions: dose 1-4 µM
MGC-803 [13] = assay: Induction of apoptosis in human MGC-803 cells assessed as increase in cleaved caspase 7 protein expression level at 1 to 4 uM incubated for 48 hrs by Western blot analysis; type: functional, cell-based; conditions: dose 1-4 µM
HGC-27 [14] = assay: Induction of apoptosis in human HGC-27 cells assessed as increase in cleaved caspase 7 protein expression level at 1 to 4 uM incubated for 48 hrs by Western blot analysis; type: functional, cell-based; conditions: dose 1-4 µM
HGC-27 [15] = assay: Induction of apoptosis in human HGC-27 cells assessed as increase in cleaved caspase 9 protein expression level at 1 to 4 uM incubated for 48 hrs by Western blot analysis; type: functional, cell-based; conditions: dose 1-4 µM
MGC-803 [16] = assay: Induction of cell cycle arrest in human MGC-803 cells assessed as accumulation of cells at S phase at 1 uM incubated for 36 hrs by PI staining based flow cytometry analysis (reference value: 20.5%); type: functional
HGC-27 [17] = assay: Induction of cell cycle arrest in human HGC-27 cells assessed as accumulation of cells at G2/M phase at 1 uM incubated for 36 hrs by PI staining based flow cytometry analysis (reference value: 26.2%); type: functional
HGC-27 [18] = assay: Induction of cell cycle arrest in human HGC-27 cells assessed as accumulation of cells at G2/M phase at 2 uM incubated for 36 hrs by PI staining based flow cytometry analysis (reference value: 26.2%); type: functional
HGC-27 [19] = assay: Induction of cell cycle arrest in human HGC-27 cells assessed as accumulation of cells at G1 phase at 4 uM incubated for 36 hrs by PI staining based flow cytometry analysis (reference value: 49.6%); type: functional
HGC-27 [20] = assay: Induction of cell cycle arrest in human HGC-27 cells assessed as accumulation of cells at S phase at 4 uM incubated for 36 hrs by PI staining based flow cytometry analysis (reference value: 8.87%); type: functional
MGC-803 [21] = assay: Induction of cell cycle arrest in human MGC-803 cells assessed as decrease in p-cdc2 level at 1 to 4 uM by Western blot analysis; type: functional, cell-based; conditions: dose 1-4 µM
MGC-803 [22] = assay: Induction of cell cycle arrest in human MGC-803 cells assessed as decrease in cyclin-B1 level at 1 to 4 uM by Western blot analysis; type: functional, cell-based; conditions: dose 1-4 µM
HGC-27 [23] = assay: Induction of cell cycle arrest in human HGC-27 cells assessed as decrease in p-cdc2 level at 1 to 4 uM by Western blot analysis; type: functional, cell-based; conditions: dose 1-4 µM
MGC-803 [24] = assay: Induction of ROS generation in human MGC-803 cells at 1 to 4 uM incubated for 24 hrs by flow cytometry analysis; type: functional, cell-based; conditions: dose 1-4 µM
MGC-803 [25] = assay: Activation of ROS/JNK signalling in human MGC-803 cells assessed as increase in p-JNK level at 1 to 4 uM by Western blot analysis; type: cell-based; conditions: filed as activator, dose 1-4 µM
HGC-27 [26] = assay: Induction of apoptosis in human HGC-27 cells incubated for 48 hrs by Annexin V-FITC and PI staining based flow cytometry analysis; type: functional
MGC-803 [27] = assay: Induction of DNA damage in human MGC-803 cells assessed as increase in gamma-H2AX generation incubated for 24 hrs by immunofluorescence analysis; type: functional, cell-based
HGC-27 [28] = assay: Induction of DNA damage in human HGC-27 cells assessed as increase in p-ATM generation incubated for 48 hrs by Western blot analysis; type: functional, cell-based; conditions: DDE = dose-dependent effect
MGC-803 [29] = assay: Induction of DNA damage in human MGC-803 cells assessed as increase in p-Chk generation incubated for 48 hrs by Western blot analysis; type: functional, cell-based; conditions: DDE = dose-dependent effect
MGC-803 [30] = assay: Antitumor activity against human MGC-803 cells xenografted with BALB/c mouse assessed as reduction in tumor weight at 10 to 20 mg/kg, ip administered once every two days; type: functional, organism-based; conditions: dose 10-20 mg/kg
MGC-803 [31] = assay: Antitumor activity against human MGC-803 cells xenografted with BALB/c mouse assessed as wrinkled nuclei at 10 to 20 mg/kg, ip administered once every two days; type: functional, organism-based; conditions: dose 10-20 mg/kg
MGC-803 [32] = assay: Antitumor activity against human MGC-803 cells xenografted with BALB/c mouse assessed as atrophied cells at 10 to 20 mg/kg, ip administered once every two days; type: functional, organism-based; conditions: dose 10-20 mg/kg
[33] = Toxicity in BALB/c mouse xenografted with human MGC-803 cells assessed as effect on creatinine level at 10 to 20 mg/kg, ip administered once every two days; type: organism-based; conditions: in vivo, dose 10-20 mg/kg
[34] = Toxicity in BALB/c mouse xenografted with human MGC-803 cells assessed as effect on kidney at 10 to 20 mg/kg, ip administered once every two days measured after 15 days by H and E staining based assay; type: organism-based; conditions: in vivo, 360 h, dose 10-20 mg/kg, time 15 day
[35] = Toxicity in BALB/c mouse xenografted with human MGC-803 cells assessed as effect on heart at 10 to 20 mg/kg, ip administered once every two days measured after 15 days by H and E staining based assay; type: organism-based; conditions: in vivo, 360 h, dose 10-20 mg/kg, time 15 day
[36] = Toxicity in BALB/c mouse xenografted with human MGC-803 cells assessed as effect on liver at 10 to 20 mg/kg, ip administered once every two days measured after 15 days by H and E staining based assay; type: organism-based; conditions: in vivo, 360 h, dose 10-20 mg/kg, time 15 day

Cc1ccc(NC2=CC(=O)c3nc4n(c3C2=O)[C@H]2OC[C@@H](O)[C@H]2OC4)cc1C
IC50 (ECa-109 cell line): 2820 nM | IC50 at 72 h [1]: 24800 nM | IC50 (MGC-803 [2]): 860 nM | IC50 (HGC-27 [3]): 1740 nM | Activity (HGC-27 [4]): Tde | Activity (HGC-27 [5]): Dde | Activity (MGC-803 [6]): Dde | Activity (HGC-27 [7]): Dde | Activity (MGC-803 [8]): Active | Activity (MGC-803 [9]): Active | Activity (HGC-27 [10]): Active | Activity (MGC-803 [11]): Active | Activity (HGC-27 [12]): Active | Activity (MGC-803 [13]): Active | Activity (HGC-27 [14]): Active | Activity (HGC-27 [15]): Active | Activity (MGC-803 [16]): 35.4% | Activity (HGC-27 [17]): 28.8% | Activity (HGC-27 [18]): 32.3% | Activity (HGC-27 [19]): 28% | Activity (HGC-27 [20]): 14.4% | Activity (MGC-803 [21]): Active | Activity (MGC-803 [22]): Active | Activity (HGC-27 [23]): Active | Activity (MGC-803 [24]): Active | Activity (MGC-803 [25]): Active | Activity (HGC-27 [26]): 54.5% | Activity (MGC-803 [27]): Active | Activity (HGC-27 [28]): Dde | Activity (MGC-803 [29]): Dde | Activity (MGC-803 [30]): Active | Activity (MGC-803 [31]): Active | Activity (MGC-803 [32]): Active | Activity [33]: Non-Toxic | Activity [34]: Non-Toxic | Activity [35]: Non-Toxic | Activity [36]: Non-Toxic

— ChEMBL document CHEMBL5113408, “Design, synthesis and antitumour activity of novel 5(6)-amino-benzimidazolequinones containing a fused morpholine” (Eur J Med Chem, 2022)
